The test system of one data set is male ICR mice. Conditions: Day 3 to Day 14.
The next data set has as its target T1, AChE from electric eel (Electrophorus electricus, UniProt O42275).
T1 construct: AChE from electric eel (C3389-500UN; Sigma); purchased Sigma C3389-500UN
As to the kind of experiment: EeAChE inhibition assay (Ellman's method). The note with it: read-out: AChE % inhibition at 20 µM, 20 µM, na = no inhibitory activity at 20 µM. The class given is biochemical. As to the method:
According to Ellman's method, assays were carried out on AChE from electric eel (C3389-500UN; Sigma) and BuChE from horse serum (C4290-1KU; Sigma). On a final volume of 500 μL, the experiment was carried out in 48-well plates. EeAChE or eqBuChE, 0.036 U/mL, and 0.1 M pH 8 phosphate buffer were added to each well. At 37 °C, they were pre-incubated for 20 min at various chemical concentrations. […] Along with the enzymatic breakdown of ACh or BuCh, the DTNB creates the yellow anion 5-thio-2-nitrobenzoic acid. In a Biotek Synergy HTX Multi-Mode reader, changes in absorbance were detected at 410 nm. Inhibition curves were used to calculate the IC50 values (log inhibitor concentration vs percent of inhibition). The same conditions were used in a control experiment without the inhibitor, and the blank comprised buffer, DMSO, DTNB, and substrate.
The IC50 values were calculated by SPSS 17.0.
Background: Ellman's reagent forms a yellow product with free thiols.

For another data set, the system named is PC12 cells. Put plainly: Neuroprotection assay against H2O2-induced PC12 cell injury. The class given is cell-based. The note with it: Rattus norvegicus. As to the method:
PC12 cells were distributed at a density of 1 × 10^4 cells per well into 96-well microtiter plates. At time zero, cells were treated with a range of compounds K3 concentrations (1‒25 µM) and kept for 3 h after being incubated overnight. The media were then changed with new media containing the medication as well as a cytotoxic stimulus in the form of 100 µM H2O2, which was left for another 24 h. The MTT assay was used to determine cell viability after 24 h. In the cells, 20 µL of 0.5 mg/mL MTT reagent was applied and incubated for 4 h. The cell culture was removed after 4 h, and 150 µL DMSO was added to dissolve the formazan. The optical density was measured at 492 nm (OD492) on the Biotek Synergy HTX Multi-Mode reader. Results were adjusted considering OD measured in the blank.

Data set [1] has as its system human normal liver cells LO2. As to the kind of experiment: Cytotoxicity MTT assay, L02 cells. Conditions: 50 μM, 24 h. As to the method:
Human hepatoblastoma cells HepG2 and human normal liver cells LO2 cells were cultured at 37 °C in DMEM containing 10% foetal bovine serum, 100 U/mL penicillin, and […] streptomycin in a humidified incubator with 5% CO2. The methyl thiazolyl tetrazolium (MTT) assay was used to assess cell cytotoxicity. In a 96-well plate, HepG2 cells and LO2 cells were injected at 1 × 10^4 cells per well. The cells were treated with various substances that were diluted in DMEM for 24 h after being cultivated for 24 h. The cells were then treated for 4 h with 20 µL 0.5 mg/mL MTT reagent. The cell culture was withdrawn after 4 h, and 150 µL DMSO were added to dissolve the formazan. […] Three independent tests were used to calculate cell viability.
Blank: cultured with fresh medium only.
In general terms: Formazan colour is commonly taken as a measure of viable cells.

A further data set in a line: in vitro. The text has this:
Based on prior work[40]^,[41], a parallel artificial membrane permeation assay (PAMPA) for the blood-brain barrier (BBB) was used to determine the ability of the test chemical to penetrate into the brain. Six commercial medicines were purchased from Aladdin Reagents to validate the methodology. Energy Chemical provided the DMSO and dodecane. Avanti Polar Lipids provided the porcine brain lipid (PBL). Millipore provided the donor 96-well filter microplate with a PVDF membrane (pore size […]) and the acceptor indented 96-well microplate. Corning Inc. provided the 96-well UV plate (COSTAR). DMSO was used to dissolve commercial medications and test compounds at a concentration of 20 mg/mL. They were then diluted 200 times in a solution of PBS (pH 7.4 ± 0.1)/EtOH (70/30, v/v) to achieve a final concentration of 100 µg/mL. The donor microplate's fifilter membrane was coated with 4 µL of PBL in dodecane (20 mg/mL). The donor wells were then filled with 200 µL of diluted chemical solution and 300 µL of PBS/EtOH (70/30, v/v). To make the membrane contact with buffer solution, the donor fifilter plate was carefully positioned on top of the acceptor plate to form a “sandwich” assembly. At 25 °C, the sandwich was left undisturbed. The donor plate was carefully removed after 18 h of incubation, and the concentrations of test chemicals in the donor and acceptor wells were quantified using a UV plate spectroscopic reader (PerkinElmer VICTOR Nivo, Finland). Each sample was analysed at three wavelengths, in at least three independent experiments, in four wells.
Pe, permeability, refers to the ability of compounds to permeate the membranes through passive diffusion in the blood-brain barrier penetration assays.

The source of these data is publication PMC9448382, “Fluorosulfate-containing pyrazole heterocycles as selective BuChE inhibitors: structure-activity relationship and biological evaluation for the treatment of Alzheimer’s disease” (Journal of Enzyme Inhibition and Medicinal Chemistry, 2022).

T1 sequence (O42275 24-633): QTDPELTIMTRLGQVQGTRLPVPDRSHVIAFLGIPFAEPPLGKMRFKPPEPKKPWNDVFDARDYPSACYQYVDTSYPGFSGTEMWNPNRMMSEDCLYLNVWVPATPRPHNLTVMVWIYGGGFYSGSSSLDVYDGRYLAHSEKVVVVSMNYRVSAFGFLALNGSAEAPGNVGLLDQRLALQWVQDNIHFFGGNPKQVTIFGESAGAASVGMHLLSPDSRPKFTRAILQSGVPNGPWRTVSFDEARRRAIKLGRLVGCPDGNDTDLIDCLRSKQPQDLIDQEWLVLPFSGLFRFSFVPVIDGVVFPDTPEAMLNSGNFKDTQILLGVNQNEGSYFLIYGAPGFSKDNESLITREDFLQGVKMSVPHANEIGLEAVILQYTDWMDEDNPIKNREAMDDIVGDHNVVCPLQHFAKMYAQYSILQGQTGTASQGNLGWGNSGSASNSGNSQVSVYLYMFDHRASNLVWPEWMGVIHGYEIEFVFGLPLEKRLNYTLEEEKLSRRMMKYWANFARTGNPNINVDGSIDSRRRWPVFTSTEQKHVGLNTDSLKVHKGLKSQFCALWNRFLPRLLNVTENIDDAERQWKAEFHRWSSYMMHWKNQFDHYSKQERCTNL
From the text for male ICR mice: The National Institutes of Health Guide for the Care and Use of Laboratory Animals was followed for all experiments. The Animal Care and Use Committee of Anhui Medical University adopted the Measures for the Care and Treatment of Laboratory Animals. In Anhui Medical University's animal centre, male ICR mice were employed (Hefei). […] Throughout all of the experiments, the room's ambient temperature and relative humidity (50%) remained constant. […] 8‒10 animals were used in each study group. The experimental time was from 08: 00 to 14: 00, and the mice were sacrificed by cervical dislocation shortly after the experiment ended. […] Aβ1–42 aggregation was induced by dissolving the Aβ1–42 peptide in DMSO as a stock solution of 5 mM and incubating it in saline at a final concentration of 2 mg/mL for 24 h at 37 °C.

`O=S(=O)(F)Oc1cc(-c2ccccc2)nn1-c1ccc(Cl)cc1` [Compound K3]: in the data set on male ICR mice (10 mg/kg po), the “effect on body weight during administration” value is reported as “no effect on body weight increase”. Moreover, the “effect on Aβ1–42-induced cognitive dysfunction (MWM)” value in the data set on male ICR mice (Aβ1–42 10 µg icv, K3 10 mg/kg po, donepezil 15 mg/kg po) is “significantly improved”. The inhibition at 20 µM on AChE from electric eel was 26.3 ± 1.4%. The viability at 5 µM in the data set with PC12 cells (PC-12, 100 µM H2O2, compound 5 µM) was 55.9%. In the data set on PC12 cells (PC-12, 100 µM H2O2, compound 25 µM), the viability at 25 µM is 69.3%. Moreover, in data set [1], the cell survival rate stood at 94.4%. In addition, the Papp in the data set “in vitro” (PAMPA, pH 7.4) was 7.2 ×10⁻⁶ cm/s. In addition, in “in vitro” (PAMPA-BBB, 18 h, 25 °C, three independent experiments), the “Pe Exp. value” is reported as “above 4 ×10^-6cm/s”.

What is called inhibition is the drop in the measured response relative to a control, in per cent. The viability is a per cent measure of how many cells are alive, often set against a control. As usually defined, the Papp is the rate of passage across a membrane or cell layer, normalised by area and donor concentration.
